Laboratory results taken from patent US20250034153A1, “TRIAZOLOPYRIMIDINES AS A2A / A2B INHIBITORS” (Incyte Corporation, priority 2019, published 2025).
pEC50, pKi: −log10 of the molar value.

Key:
Adenosine A2A = Adenosine A2A (Homo sapiens (Human), UniProt P29274); assay: A2A Tag-lite HTRF assay (Example C); conditions: Tag-lite Adenosine A2A labeled cells, Red antagonist fluorescent ligand 12.5 nM, one-site competitive binding; read-out: A2A_Ki
Protocol: Example C. A2A Tag-Lite® HTRF Assay
Assays were conducted in black low volume 384-well polystyrene plates (Greiner 784076-25) in a final volume of 10 μL. Test compounds were first serially diluted in DMSO and 100 nl added to the plate wells before the addition of other reaction components. The final concentration of DMSO was 1%. Tag-lite® Adenosine A2A labeled cells (CisBio C1TT1A2A) were diluted 1:5 into Tag-lite buffer (CisBio LABMED) and spun 1200 g for 5 mins. The pellet was resuspended at a volume 10.4× the initial cell suspension volume in Tag-lite buffer, and Adenosine A2A Receptor Red antagonist fluorescent ligand (CisBio L0058RED) added at 12.5 nM final concentration. 10 ul of the cell and ligand mix was added to the assay wells and incubated at room temperature for 45 minutes before reading on a PHERAstar FS plate reader (BMG Labtech) with HTRF 337/620/665 optical module. Percent binding of the fluorescent ligand was calculated; where 100 nM of A2A antagonist control ZM 241385 (Tocris 1036) displaces the ligand 100% and 1% DMSO has 0% displacement. The % binding data versus the log of the inhibitor concentration was fitted to a one-site competitive binding model (GraphPad Prism version 7.02) where the ligand constant=12.5 nM and the ligand Kd=1.85 nM.

[1] = molecular target: human adenosine A2B receptor (Homo sapiens (Human), UniProt P29275); assay: Adenosine A2B receptor cyclic AMP GS assay (Example B); assay type: cell-based; conditions: HEK-293 cells expressing human A2B, agonist NECA 12 nM, cAMP accumulation (FRET); read-out: A2B_cAMP_EC50
Protocol: Example B. Adenosine A2B Receptor Cyclic AMP GS Assay
Stably transfected HEK-293 cells expressing the human adenosine A2B receptor (Perkin Elmer) were maintained in MEM culture medium with 10% FBS and 100 μg/ml Geneticin (Life Technologies). 18 to 24 hours prior to assay, geneticin was removed from culture. The cisbio cAMP-GS Dynamic kit utilizing the FRET (Fluorescence Resonance Energy Transfer) technology was used to measure cAMP accumulation in the cells. Compounds of the present disclosure at an appropriate concentration were mixed with 10000 cells/well in white 96 well half area plates (Perkin Elmer) for 30 min at RT gently shaking. Agonist, NECA (R&D Technologies) at 12 nM was added to each well for 60 min at RT gently shaking. Detection reagents, d2-labeled cAMP (acceptor) and anti-cAMP cryptate (donor) were added to each well for 60 min at RT gently shaking. Plates were read on Pherastar (BMG Labtech), fluorescence ratio 665/620 was calculated and EC50 determination was performed by fitting the curve of percent of control versus the log of the compound concentration using GraphPad Prism.

Sequence of human adenosine A2B receptor (P29275 whole entry): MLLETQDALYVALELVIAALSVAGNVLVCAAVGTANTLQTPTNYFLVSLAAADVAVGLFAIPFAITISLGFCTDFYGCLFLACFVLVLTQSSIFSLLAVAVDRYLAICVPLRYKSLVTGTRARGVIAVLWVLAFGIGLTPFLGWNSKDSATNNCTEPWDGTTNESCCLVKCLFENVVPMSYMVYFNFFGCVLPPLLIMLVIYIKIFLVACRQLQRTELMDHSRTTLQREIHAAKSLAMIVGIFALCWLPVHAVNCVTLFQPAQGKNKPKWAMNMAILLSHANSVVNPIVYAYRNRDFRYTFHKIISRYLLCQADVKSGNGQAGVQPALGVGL
Sequence of Adenosine A2A (P29274 whole entry): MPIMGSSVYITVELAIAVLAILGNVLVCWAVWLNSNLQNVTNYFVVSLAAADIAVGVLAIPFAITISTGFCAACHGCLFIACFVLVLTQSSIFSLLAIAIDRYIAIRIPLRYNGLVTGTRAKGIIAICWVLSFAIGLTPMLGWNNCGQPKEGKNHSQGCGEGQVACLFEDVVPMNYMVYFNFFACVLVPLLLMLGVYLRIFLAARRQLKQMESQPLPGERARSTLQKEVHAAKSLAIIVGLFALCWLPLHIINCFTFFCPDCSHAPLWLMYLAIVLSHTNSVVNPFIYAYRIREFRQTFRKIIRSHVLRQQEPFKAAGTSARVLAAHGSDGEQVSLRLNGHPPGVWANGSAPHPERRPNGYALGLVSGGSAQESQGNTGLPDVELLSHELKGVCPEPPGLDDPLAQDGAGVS

SMILES | pKi (Adenosine A2A) | pEC50 [1]
N#Cc1cccc(-c2nc(N)n3nc(Cn4nnnc4-c4cccc(N)c4)nc3c2-c2ccncn2)c1 [Example 1, 3-(5-amino-2-((5-(3-aminophenyl)-1H-tetrazol-1-yl)methyl)-8-(pyrimidin-4-yl)-[1,2,4]triazolo[1,5-c]pyrimidin-7-yl)benzonitrile] | ≥ 8.00 | ≥ 8.00
Cc1cccc(-c2nnnn2Cc2nc3c(-c4ccncn4)c(-c4cccc(C#N)c4)nc(N)n3n2)n1 [Example 2, 3-(5-amino-2-((5-(6-methylpyridin-2-yl)-1H-tetrazol-1-yl)methyl)-8-(pyrimidin-4-yl)-[1,2,4]triazolo[1,5-c]pyrimidin-7-yl)benzonitrile] | ≥ 8.00 | ≥ 8.00
COc1cccc(-c2nnnn2Cc2nc3c(-c4ccncn4)c(-c4cccc(C#N)c4)nc(N)n3n2)n1 [Example 3, 3-(5-amino-2-((5-(6-methoxypyridin-2-yl)-1H-tetrazol-1-yl)methyl)-8-(pyrimidin-4-yl)-[1,2,4]triazolo[1,5-c]pyrimidin-7-yl)benzonitrile] | ≥ 8.00 | 7.00 to 8.00
Cn1cc(-c2c(-c3cccc(C#N)c3)nc(N)n3nc(Cn4nnnc4-c4ccccn4)nc23)ccc1=O [Example 4, 3-(5-amino-8-(1-methyl-6-oxo-1,6-dihydropyridin-3-yl)-2-((5-(pyridin-2-yl)-1H-tetrazol-1-yl)methyl)-[1,2,4]triazolo[1,5-c]pyrimidin-7-yl)benzonitrile] | ≥ 8.00 | 7.00 to 8.00
Cn1cc(-c2c(-c3cccc(C#N)c3)nc(N)n3nc(Cn4nnnc4-n4cccn4)nc23)ccc1=O [Example 5, 3-(2-((5-(1H-pyrazol-1-yl)-1H-tetrazol-1-yl)methyl)-5-amino-8-(1-methyl-6-oxo-1,6-dihydropyridin-3-yl)-[1,2,4]triazolo[1,5-c]pyrimidin-7-yl)benzonitrile] | ≥ 8.00 | 7.00 to 8.00
Cn1cc(-c2c(-c3cccc(C#N)c3)nc(N)n3nc(Cn4nnnc4-c4cscn4)nc23)ccc1=O [Example 6, 3-(5-amino-8-(1-methyl-6-oxo-1,6-dihydropyridin-3-yl)-2-((5-(thiazol-4-yl)-1H-tetrazol-1-yl)methyl)-[1,2,4]triazolo[1,5-c]pyrimidin-7-yl)benzonitrile] | ≥ 8.00 | 7.00 to 8.00
Cn1cc(-c2c(-c3cccc(C#N)c3)nc(N)n3nc(Cn4nnnc4-c4ncccn4)nc23)ccc1=O [Example 7, 3-(5-amino-8-(1-methyl-6-oxo-1,6-dihydropyridin-3-yl)-2-((5-(pyrimidin-2-yl)-1H-tetrazol-1-yl)methyl)-[1,2,4]triazolo[1,5-c]pyrimidin-7-yl)benzonitrile] | ≥ 8.00 | 7.00 to 8.00
Cn1cc(-c2c(-c3cccc(C#N)c3)nc(N)n3nc(Cn4nnnc4-c4cnccn4)nc23)ccc1=O [Example 8, 3-(5-amino-8-(1-methyl-6-oxo-1,6-dihydropyridin-3-yl)-2-((5-(pyrazin-2-yl)-1H-tetrazol-1-yl)methyl)-[1,2,4]triazolo[1,5-c]pyrimidin-7-yl)benzonitrile] | ≥ 8.00 | 7.00 to 8.00
Cn1nc(-c2c(-c3cccc(C#N)c3)nc(N)n3nc(Cn4nnnc4-c4ccccn4)nc23)ccc1=O [Example 9, 3-(5-amino-8-(1-methyl-6-oxo-1,6-dihydropyridazin-3-yl)-2-((5-(pyridin-2-yl)-1H-tetrazol-1-yl)methyl)-[1,2,4]triazolo[1,5-c]pyrimidin-7-yl)benzonitrile] | ≥ 8.00 | 7.00 to 8.00
N#Cc1cccc(-c2nc(N)n3nc(Cn4nnnc4-c4ccccn4)nc3c2-c2ccncc2)c1 [Example 10, 3-(5-amino-2-((5-(pyridin-2-yl)-1H-tetrazol-1-yl)methyl)-8-(pyridin-4-yl)-[1,2,4]triazolo[1,5-c]pyrimidin-7-yl)benzonitrile] | ≥ 8.00 | ≥ 8.00
CN(C)c1cc(-c2c(-c3cccc(C#N)c3)nc(N)n3nc(Cn4nnnc4-c4ccccn4)nc23)ccn1 [Example 11, 3-(5-amino-8-(2-(dimethylamino)pyridin-4-yl)-2-((5-(pyridin-2-yl)-1H-tetrazol-1-yl)methyl)-[1,2,4]triazolo[1,5-c]pyrimidin-7-yl)benzonitrile] | ≥ 8.00 | ≥ 8.00
N#Cc1cccc(-c2nc(N)n3nc(Cn4nnnc4-c4ccccn4)nc3c2-c2ccnc(N)c2)c1 [Example 12, 3-(5-amino-8-(2-aminopyridin-4-yl)-2-((5-(pyridin-2-yl)-1H-tetrazol-1-yl)methyl)-[1,2,4]triazolo[1,5-c]pyrimidin-7-yl)benzonitrile] | ≥ 8.00 | ≥ 8.00
N#Cc1cccc(-c2nc(N)n3nc(Cc4c(F)cccc4-c4ccncc4)nc3c2-c2ccncc2)c1 [Example 13, 3-(5-amino-2-(2-fluoro-6-(pyridin-4-yl)benzyl)-8-(pyridin-4-yl)-[1,2,4]triazolo[1,5-c]pyrimidin-7-yl)benzonitrile] | ≥ 8.00 | ≥ 8.00
N#Cc1cccc(-c2nc(N)n3nc(Cc4c(F)cccc4-c4ccnc(N)c4)nc3c2-c2ccnc(N)c2)c1 [Example 14, 3-(5-amino-8-(2-aminopyridin-4-yl)-2-(2-(2-aminopyridin-4-yl)-6-fluorobenzyl)-[1,2,4]triazolo[1,5-c]pyrimidin-7-yl)benzonitrile] | ≥ 8.00 | ≥ 8.00
Cc1cccnc1CNc1nc2c(-c3ccc(=O)n(C)c3)c(-c3cccc(C#N)c3)nc(N)n2n1 [Example 15, 3-(5-amino-8-(1-methyl-6-oxo-1,6-dihydropyridin-3-yl)-2-(((3-methylpyridin-2-yl)methyl)amino)-[1,2,4]triazolo[1,5-c]pyrimidin-7-yl)benzonitrile] | ≥ 8.00 | ≥ 8.00
CCn1cc(-c2c(-c3cccc(C#N)c3)nc(N)n3nc(NCc4ncccc4C)nc23)ccc1=O [Example 16, 3-(5-amino-8-(1-ethyl-6-oxo-1,6-dihydropyridin-3-yl)-2-(((3-methylpyridin-2-yl)methyl)amino)-[1,2,4]triazolo[1,5-c]pyrimidin-7-yl)benzonitrile] | ≥ 8.00 | ≥ 8.00
Cc1cccnc1CNc1nc2c(-c3ccc(=O)n(C)n3)c(-c3cccc(C#N)c3)nc(N)n2n1 [Example 17, 3-(5-amino-8-(1-methyl-6-oxo-1,6-dihydropyridazin-3-yl)-2-(((3-methylpyridin-2-yl)methyl)amino)-[1,2,4]triazolo[1,5-c]pyrimidin-7-yl)benzonitrile] | ≥ 8.00 | ≥ 8.00
Cc1cccnc1COc1nc2c(-c3ccc(=O)n(C)c3)c(-c3cccc(C#N)c3)nc(N)n2n1 [Example 18, 3-(5-amino-8-(1-methyl-6-oxo-1,6-dihydropyridin-3-yl)-2-((3-methylpyridin-2-yl)methoxy)-[1,2,4]triazolo[1,5-c]pyrimidin-7-yl)benzonitrile] | ≥ 8.00 | ≥ 8.00
Cc1cccnc1COc1nc2c(-c3ccc(=O)n(C)n3)c(-c3cccc(C#N)c3)nc(N)n2n1 [Example 19, 3-(5-amino-8-(1-methyl-6-oxo-1,6-dihydropyridazin-3-yl)-2-((3-methylpyridin-2-yl)methoxy)-[1,2,4]triazolo[1,5-c]pyrimidin-7-yl)benzonitrile] | ≥ 8.00 | ≥ 8.00
Cc1cnccc1-c1c(-c2cccc(C#N)c2)nc(N)n2nc(OCc3ncccc3C)nc12 [Example 20, 3-(5-amino-2-((3-methylpyridin-2-yl)methoxy)-8-(3-methylpyridin-4-yl)-[1,2,4]triazolo[1,5-c]pyrimidin-7-yl)benzonitrile] | ≥ 8.00 | ≥ 8.00
Cc1cc(-c2c(-c3cccc(C#N)c3)nc(N)n3nc(OCc4ncccc4C)nc23)cc(C)n1 [Example 21, 3-(5-amino-8-(2,6-dimethylpyridin-4-yl)-2-((3-methylpyridin-2-yl)methoxy)-[1,2,4]triazolo[1,5-c]pyrimidin-7-yl)benzonitrile] | ≥ 8.00 | 7.00 to 8.00
CCn1cc(-c2c(-c3cccc(C#N)c3)nc(N)n3nc(OCc4ncccc4C)nc23)ccc1=O [Example 22, 3-(5-amino-8-(1-ethyl-6-oxo-1,6-dihydropyridin-3-yl)-2-((3-methylpyridin-2-yl)methoxy)-[1,2,4]triazolo[1,5-c]pyrimidin-7-yl)benzonitrile] | ≥ 8.00 | 7.00 to 8.00
